In patent US20110152267A1, “Compositions and Methods for Treating Hyperproliferative Disorders” (Texas Tech University System, priority 2009, published 2011):

Assays:
Type in all cases: cell-based, human
[1] = system: RPMI-8226 Multiple Myeloma cell line; assay: DIMSCAN cytotoxicity, fenretinide + L-threo-sphinganines 3:1 (Example B2); details: 96 h
Protocol: (§1) Cytotoxicity Assay—Once again, cytotoxicity is determined using the DIMSCAN assay system (R. Proffitt et al., Cytometry 24, 204-213 (1996); T. Frgala et al., Mol Cancer Ther. 6:886-97, 2007). The system employs digital imaging microscopy to quantify viable cells, which selectively accumulate fluorescein diacetate to become brightly fluorescent. The system is capable of measuring cytotoxicity over a 4-5 log dynamic range by quenching the residual fluorescence of dead and dying cells with eosin Y and quantifying the total fluorescence of viable cells using digital thresholding. Measured fluorescence is directly proportionate to the number of viable cells. A comparison of the total fluorescence of a drug-treated cell population to the fluorescence of a similar number of untreated cells yields a survival fraction. In brief, 2000 to 10,000 cells/well (depending on size and growth rates) are replicate plated into 60 wells of a 96-well tissue culture plate in 0.1 mL of whole medium and allowed to attach overnight. Drug(s) are then added in 0.05 mL of whole medium to the final concentrations indicated. Drugs (fenretinide, and various chain length L-threo-sphinganines) were tested both as single agents and in a 3:1 ratio of fenretinide:sphinganine. C18-L-threo-sphinganine, or “safingol,” was also tested and results shown for reference. There are 12 wells treated per drug concentration. Twelve wells receive drug vehicle-only to the appropriate final concentration and serve as controls for the plate. Cells are incubated for 96 hours at 37° C. in ambient air with 5% CO2. Fluorescein diacetate is then added to each well in 0.05 mL media to a final concentration of 8 microgram/mL. Cells are incubated for a further 15 minutes at 37° C. and 0.03 mL of 0.5% eosin Y is added to each well. Total fluorescence of viable cells is then measured by digital imaging microscopy. Results were graphed as the ratio of the fluoresecence of drug-treated wells to non-drug treated control wells (i.e., Survival Fraction). All tests were performed at least twice. Representative results are shown.
(§2) The Combination Index (CI) is a term to describe mathematical modeling of the pharmacologic effects on cytotoxicity (cell death) of two drugs in combination based. Cytotoxic “synergy” is defined as a cell death affect which is greater than would be expected from a simple product of the single agent cytotoxicities alone (i.e. an “additive” effect). By Chou-Talalay analysis, a CI<0.9 on a Fraction Affected (“Fa”, i.e. fraction of cells killed) indicates synergy, with smaller numbers indicating greater synergy; a CI of 0.9-1.1 signifies an additive or near-additive effect; and a CI>1.1 means the drug combination is antagonistic.
Fenretinide and L-threo-sphinganines tested in human Multiple Myeloma (a cancer of the blood and bone marrow) cell line, RPMI-8226.

[2] = system: SJ-G2 Glioblastoma cell line; assay: DIMSCAN cytotoxicity, fenretinide + L-threo-sphinganines 3:1 (Example B8); details: 96 h
Protocol: as §1, §2
Fenretinide and L-threo-sphinganines tested in human Glioblastoma (brain cancer) cell line, SJ-G2.

[3] = system: A-2058 melanoma cell line; assay: DIMSCAN cytotoxicity, fenretinide + L-threo-sphinganines 3:1 (Example B11); details: 96 h
Protocol: as §1, §2
Fenretinide and L-threo-sphinganines tested in human melanoma (skin cancer) cell line, A-2058.

[4] = system: OVCAR-8 ovarian adenocarcinoma cell line; assay: DIMSCAN cytotoxicity, fenretinide + L-threo-sphinganines 3:1 (Example B15); design: key to CI (Combination Index): Chou-Talalay CI: <0.9 synergy, 0.9-1.1 additive, >1.1 antagonism; details: 96 h
Protocol: as §1, §2
Fenretinide and L-threo-sphinganines tested in human ovarian adenocarcinoma (ovarian cancer) cell line, OVCAR-8.

[5] = system: PC-3 prostate adenocarcinoma cell line; assay: DIMSCAN cytotoxicity, fenretinide + L-threo-sphinganines 3:1 (Example B17)
Protocol: as §1, §2
Fenretinide and L-threo-sphinganines tested in human prostate adenocarcinoma (prostate cancer) cell line, PC-3.

[6] = system: CHLA-266 brain cancer (PNET) cell line; assay: DIMSCAN cytotoxicity dose-response with fenretinide (Examples A, FIGS. 2, 8, 13); details: 2% oxygen, at one or more doses, +96 hrs
Protocol: Cytotoxicity Assay: Cytotoxicity in cell lines was determined using a fluorescence-based assay employing digital imaging microscopy (DIMSCAN)(after Fragala, et al, Mol Cancer Ther, 6:886-897, 2007). DIMSCAN quantitates viable cells which selectively accumulate fluorescein diacetate and is capable of measuring cytotoxicity over a 4-5 log dynamic range by quantifying total fluorescence per well (which is proportional to viable, clonogenic cells) after eliminating background fluorescence using digital thresholding and eosin Y quenching. Briefly, cell lines were seeded into 96-well plates in 100 µL of complete culture medium (10-20% serum) per well. Cells were incubated overnight in 2%, 5% or 20% oxygen (room air) prior to addition of drugs in […] volumes of complete medium to various final drug concentrations in replicates of 12 wells per concentration. In assays employing D-threo-PPMP, PPMP was employed at a fixed, minimally-toxic, final concentration of 10 μM in each well. Control wells received ethanol (final concentration=0.12%-0.20%) in complete medium equivalent to the maximum final ethanol concentration of drug-treated wells. Plates were incubated at various oxygen concentrations to simulate physiological hypoxia (i.e., 2% oxygen=typical solid tumor oxygen levels; 5%=bone marrow oxygen levels for leukemias; 20% room air=supraphysiological oxygen for comparison with typical laboratory culture conditions). Plates were assayed at 3-4 days after initiating drug exposure depending on the growth properties of each cell line, to allow for maximum cell death and outgrowth of surviving cells. To measure cytotoxicity, FDA (stock solution of 1 mg/ml in DMSO) was added, in 50 µL of complete medium per well, to a final concentration of 10 µg/ml. The plates were incubated for an additional 15-30 minutes at 37 C and then 30 µL of eosin Y (0.5% in normal saline) was added per well. Total fluorescence of each well was then measured using digital imaging microscopy. […]

[7] = 4-HPR 1.5 μM + L-threo-sphinganine 0.5 μM
[8] = 4-HPR 3 μM + L-threo-sphinganine 1 μM
[9] = 4-HPR 6 μM + L-threo-sphinganine 2 μM
[10] = 4-HPR 9 μM + L-threo-sphinganine 3 μM

CCCCCCCCCCCCCCCCC[C@H](O)[C@@H](N)CO [C20, (2S,3S)-2-amino-1,3-icosanediol]
CI (Combination Index) [1, 7]: 1.0 | Fa (fraction affected) [1, 7]: 0.583 | CI (Combination Index) [1, 8]: 1.1 | Fa (fraction affected) [1, 8]: 0.867 | CI (Combination Index) [1, 9]: 0.9 | Fa (fraction affected) [1, 9]: 0.996 | CI (Combination Index) [1, 10]: 0.3 | Fa (fraction affected) [1, 10]: 1 | CI (Combination Index) [2, 7]: 0.9 | Fa (fraction affected) [2, 7]: 0.408 | CI (Combination Index) [2, 8]: 0.8 | Fa (fraction affected) [2, 8]: 0.773 | CI (Combination Index) [2, 9]: 1.1 | Fa (fraction affected) [2, 9]: 0.896 | CI (Combination Index) [2, 10]: 0.2 | Fa (fraction affected) [2, 10]: 0.999 | CI (Combination Index) [3, 7]: 0.7 | Fa (fraction affected) [3, 7]: 0.311 | CI (Combination Index) [3, 8]: 1.0 | Fa (fraction affected) [3, 8]: 0.742 | CI (Combination Index) [3, 9]: 1.7 | Fa (fraction affected) [3, 9]: 0.870 | CI (Combination Index) [3, 10]: 0.5 | Fa (fraction affected) [3, 10]: 1.000 | CI (Combination Index) [4, 7]: 0.5 | Fa (fraction affected) [4, 7]: 0.259 | CI (Combination Index) [4, 8]: 0.6 | Fa (fraction affected) [4, 8]: 0.366 | CI (Combination Index) [4, 9]: 0.8 | Fa (fraction affected) [4, 9]: 0.453 | CI (Combination Index) [4, 10]: 0.2 | Fa (fraction affected) [4, 10]: 0.956 | CI [5, 7]: 1.0 | Fa [5, 7]: 0.217 | CI [5, 8]: 1.1 | Fa [5, 8]: 0.393 | CI [5, 9]: 1.2 | Fa [5, 9]: 0.620 | CI [5, 10]: 0.5 | Fa [5, 10]: 0.916 | C.I. (Combination Index) with fenretinide [6]: < 1

CCCCCCCCC[C@H](O)[C@@H](N)CO [C12]
CI (Combination Index) [1, 7]: 0.8 | Fa (fraction affected) [1, 7]: 0.6 | CI (Combination Index) [1, 8]: 1.0 | Fa (fraction affected) [1, 8]: 0.757 | CI (Combination Index) [1, 9]: 0.7 | Fa (fraction affected) [1, 9]: 0.96 | CI (Combination Index) [1, 10]: 0.5 | Fa (fraction affected) [1, 10]: 0.988 | CI (Combination Index) [2, 7]: 0.8 | Fa (fraction affected) [2, 7]: 0.199 | CI (Combination Index) [2, 8]: 0.7 | Fa (fraction affected) [2, 8]: 0.530 | CI (Combination Index) [2, 9]: 0.8 | Fa (fraction affected) [2, 9]: 0.764 | CI (Combination Index) [2, 10]: 0.6 | Fa (fraction affected) [2, 10]: 0.931 | CI (Combination Index) [3, 7]: 0.3 | Fa (fraction affected) [3, 7]: 0.244 | CI (Combination Index) [3, 8]: 0.6 | Fa (fraction affected) [3, 8]: 0.247 | CI (Combination Index) [3, 9]: 0.9 | Fa (fraction affected) [3, 9]: 0.518 | CI (Combination Index) [3, 10]: 1.0 | Fa (fraction affected) [3, 10]: 0.854 | CI (Combination Index) [4, 7]: 0.3 | Fa (fraction affected) [4, 7]: 0.382 | CI (Combination Index) [4, 8]: 0.5 | Fa (fraction affected) [4, 8]: 0.445 | CI (Combination Index) [4, 9]: 0.6 | Fa (fraction affected) [4, 9]: 0.634 | CI (Combination Index) [4, 10]: 0.8 | Fa (fraction affected) [4, 10]: 0.704 | CI [5, 7]: 0.5 | Fa [5, 7]: 0.245 | CI [5, 8]: 0.8 | Fa [5, 8]: 0.328 | CI [5, 9]: 0.9 | Fa [5, 9]: 0.526 | CI [5, 10]: 0.8 | Fa [5, 10]: 0.721

CCCCCCCCCCC[C@H](O)[C@@H](N)CO [C14]
CI (Combination Index) [1, 7]: 0.8 | Fa (fraction affected) [1, 7]: 0.606 | CI (Combination Index) [1, 8]: 1.1 | Fa (fraction affected) [1, 8]: 0.747 | CI (Combination Index) [1, 9]: 1.0 | Fa (fraction affected) [1, 9]: 0.93 | CI (Combination Index) [1, 10]: 0.4 | Fa (fraction affected) [1, 10]: 0.994 | CI (Combination Index) [2, 7]: 1.3 | Fa (fraction affected) [2, 7]: 0.103 | CI (Combination Index) [2, 8]: 1.3 | Fa (fraction affected) [2, 8]: 0.307 | CI (Combination Index) [2, 9]: 1.4 | Fa (fraction affected) [2, 9]: 0.575 | CI (Combination Index) [2, 10]: 1.0 | Fa (fraction affected) [2, 10]: 0.845 | CI (Combination Index) [3, 7]: 1.1 | Fa (fraction affected) [3, 7]: 0.045 | CI (Combination Index) [3, 8]: 1.2 | Fa (fraction affected) [3, 8]: 0.088 | CI (Combination Index) [3, 9]: 1.4 | Fa (fraction affected) [3, 9]: 0.193 | CI (Combination Index) [3, 10]: 1.3 | Fa (fraction affected) [3, 10]: 0.650 | CI (Combination Index) [4, 7]: 0.1 | Fa (fraction affected) [4, 7]: 0.696 | CI (Combination Index) [4, 8]: 0.1 | Fa (fraction affected) [4, 8]: 0.860 | CI (Combination Index) [4, 9]: 0.1 | Fa (fraction affected) [4, 9]: 0.978 | CI (Combination Index) [4, 10]: 0.1 | Fa (fraction affected) [4, 10]: 0.988 | CI [5, 7]: 0.7 | Fa [5, 7]: 0.192 | CI [5, 8]: 1.0 | Fa [5, 8]: 0.283 | CI [5, 9]: 1.3 | Fa [5, 9]: 0.426 | CI [5, 10]: 1.2 | Fa [5, 10]: 0.634
